# Measured values as given in ChEMBL document CHEMBL4673397, “Dihydroorotate Dehydrogenase Inhibitors for Treating Acute Myelogenous Leukemia (AML)” (ACS Med Chem Lett, 2021).
# Tested on: MOLM-13
# Test: Antiproliferative activity against human MOLM-13 cells assessed as reduction in cell viability measured after 72 hrs by Celltiter-Glo assay
# Assay type: functional, cell-based
# Settings: MOLM-13, 72 h
row,SMILES,IC50
1,C=C(C)c1cn(-c2c(F)cccc2Cl)c(=O)c2cc(F)c(-n3nc(CO)n(CC)c3=O)cc12,0.1 nM
2,C=C(C)c1cn(-c2ccccc2F)c(=O)c2cc(F)c(-n3nc(CO)n(CC)c3=O)cc12,0.3 nM
3,C=C(C)c1cn(-c2c(F)ccc(OC)c2Cl)c(=O)c2cc(F)c(-n3nc(CO)n(CC)c3=O)cc12,0.1 nM
4,C=C(C)c1cn(-c2cc(F)ccc2C)c(=O)c2cc(F)c(-n3nc(CO)n(CC)c3=O)cc12,0.09 nM

# Further lines, results first:
row,IC50,SMILES
1,0.2 nM,CCn1c(CO)nn(-c2cc3c(C(C)C)cn(-c4ccccc4C)c(=O)c3cc2F)c1=O
2,0.2 nM,CCn1c(CO)nn(-c2cc3c(C(C)C)cn(-c4c(F)cccc4Cl)c(=O)c3cc2F)c1=O

# Molecular target: Dihydroorotate dehydrogenase (quinone), mitochondrial (Homo sapiens, UniProt Q02127)
# Test: Inhibition of human DHODH (30 to 390 residues) expressed in Escherichia coli using dihydroorotate as substrate and CoQ10 as co-substrate by DCIP dye based spectrophotometry analysis
# Settings: not given
# Chain of Dihydroorotate dehydrogenase (quinone), mitochondrial (Q02127 whole entry, the tested form may be a part): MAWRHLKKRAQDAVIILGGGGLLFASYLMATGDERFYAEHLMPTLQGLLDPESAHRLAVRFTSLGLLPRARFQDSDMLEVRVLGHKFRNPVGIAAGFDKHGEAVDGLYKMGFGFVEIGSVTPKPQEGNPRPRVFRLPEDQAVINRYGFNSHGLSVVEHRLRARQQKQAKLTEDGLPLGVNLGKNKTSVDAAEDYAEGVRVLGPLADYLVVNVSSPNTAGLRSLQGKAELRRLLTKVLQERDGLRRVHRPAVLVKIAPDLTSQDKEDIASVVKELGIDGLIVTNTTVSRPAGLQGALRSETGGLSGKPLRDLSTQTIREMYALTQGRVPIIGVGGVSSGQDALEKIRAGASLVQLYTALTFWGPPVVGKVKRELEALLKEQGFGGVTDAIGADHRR
row,IC50,SMILES
1,< 0.169 nM,C=C(C)c1cn(-c2ccccc2F)c(=O)c2cc(F)c(-n3nc(CO)n(CC)c3=O)cc12
